Assay results reported in US5260340A, “Prevention and amelioration of acetaminophen toxicity with beta-carotene” (priority 1992, dated 1993).
Read-outs that look alike come from different tables or passages of the source.

Tests used:
[1] = system: toxicity due to aspirin; details: in vivo; cited from earlier work
[2] = system: duodenal ulcers and stress ulcers; details: rats fed 3-, 4-diaminotoluene; cited from earlier work
[3] = cited from earlier work
[4] = cited from earlier work; remark: listed apart in the source
[5] = system: mice; test: Feeding of mice following IP injection of a lethal dose of acetaminophen; assay type: in vivo
[6] = system: liver; details: cited from earlier work
[7] = system: toxic side effects of antibiotics; details: plants; cited from earlier work
[8] = human; not yet determined; cited from earlier work
[9] = system: Kupffer cells of the liver; details: in vivo; cited from earlier work
[10] = system: acetaminophen toxicity; test: Antidotal treatment of acetaminophen toxicity (Example 8): survival and weight regain; assay type: in vivo, DBA/2J mice
Experimental: (§1) The total amount of beta-carotene consumed by mice in each experiment was computed using the estimates that a 25 gram mouse will consume […] of food and 25 ml/day of water, under normal conditions.
(§2) The design of this experiment was predicated on the clinical time sequence involved in, or associated with, acetaminophen overdose and toxicity, and the biological response of mice to lethal injections of this drug. When a human ingests a toxic, potentially lethal dose of acetaminophen, few if any, clinical signs manifest during the first forty-eight hours. The patient remains alert and can take food voluntarily or by a nasal gastric tube. […] Because the time course of human toxicity implies that a patient could orally ingest an antidote such as beta-carotene within the forty-eight hour period immediately following an overdose, it was proposed that a comparative animal model would be feeding subjects with a beta-carotene diet for forty-eight hours prior to the administration of a known lethal dose of acetaminophen.
Twelve DBA/2J mice (The Jackson Laboratory) were weighed and starved for seventy-two hours. The mean weight loss during this time was 27%. The mice received a Modified HLR 341 diet with 10 percent of 10% beta-carotene beadlets, 10% safflower oil, 6% lard, 1.6 mg/kg of vitamin K, and […] of vitamin A (Dyets, Inc.). The mice regained 86% of their original weight. Each mouse ingested about 0.1 gram of beta-carotene by the forty-eighth hour.
After forty-eight hours on the experimental diet, the mice received an IP injection of 800 mg/kg of acetaminophen (Fisher Scientific) dissolved in 20% Tween 80 (Sigma Chemical Co.) in saline.
The mice were reweighed, and a second injection of 600 mg/kg of acetaminophen dissolved in 20% Tween 80 in saline was given to each mouse. By seventy hours after the first injection, 92% of the mice were alive.

[11] = system: acetaminophen toxicity; test: Prevention of acetaminophen toxicity, simultaneous administration (Example 6): survival and body weight; assay type: in vivo, 129ReJ mice; details: beta-carotene diet
Experimental: as §1
Ten 129ReJ mice (The Jackson Laboratory) were starved for twelve hours during which time they lost 4% of their original weight. The mice were then given drinking bottles containing a 0.1% aqueous solution of acetaminophen (Fisher Scientific). The mice were given a Modified HLR 341 diet with 10 percent of 10% beta-carotene beadlets, 10% safflower oil, 6% lard, 1.6 mg/kg of vitamin K, and 4000 IU/kg of vitamin A (Dyets, Inc.). The food regimen was continued throughout the remainder of the experiment.
At the sixtieth hour, all of the mice received an IP injection of 300 mg/kg of acetaminophen, and the drinking bottles were filled with pure water.

[12] = system: cytochrome P450; details: fourteen days of dietary beta-carotene supplement; mouse liver homogenates; cited from earlier work
[13] = mammals; cited from earlier work
[14] = system: aflatoxin-induced liver toxicity; details: chickens; simultaneous administration; cited from earlier work
[15] = system: acetaminophen toxicity; test: Antidotal treatment of acetaminophen toxicity (Example 7): survival and weight restoration; assay type: in vivo, 129/ReJ mice
Experimental: as §1, §2
Eight 129/ReJ mice (The Jackson Laboratory) were wholly or partially starved for seventy-two hours to enhance their appetite. Mean weight loss during this period was 13%. […] Each mouse ingested about 0.1 gram of beta-carotene by the forty-eighth hour. […]

[16] = system: acetaminophen toxicity; test: Prevention of acetaminophen toxicity, pre-administration of beta-carotene in the diet: survival after IP acetaminophen 800 mg/kg; assay type: in vivo, 129/ReJ mice; details: for mice alive seventy-two hours after injection: 800 mg/kg acetaminophen IP; for Survival 72 Hours After Ingestion (%) / Survival 72 Hours After Ingestion, Survivors/Sample: acetaminophen 800 mg/kg IP
Experimental: as §1
Nine 129/ReJ mice, (The Jackson Laboratory-Bar Harbor, Me.) were pre-fed a diet of Modified HLR 341 with 10 percent of 10% beta-carotene beadlets, 1.6 mg/kg of vitamin K, and 4,000 IU/kg of vitamin A (Dyets, Inc.--Bethlehem, Pa.) for a period of five months. Each mouse ingested about 7.5 grams of beta-carotene.
Each mouse then received an intraperitoneal (IP) injection of 800 mg/kg of acetaminophen (Fisher Scientific-Pittsburgh, Pa.) dissolved in 20% Tween 80 (Sigma Chemical Company -- St. Louis, Mo.) in saline. […]

[17] = system: acetaminophen toxicity; test: Prevention of acetaminophen toxicity, simultaneous administration (Example 5): survival; assay type: in vivo, DBA/2J mice; details: about 20 mg total beta-carotene per mouse by hour 24; 1% acetaminophen in water, 500 mg/kg IP at hours 24 and 30
Experimental: as §1
Four DBA/2J mice (The Jackson Laboratory) were weighed. Food was removed, and the mice were given drinking bottles containing a one percent aqueous solution of acetaminophen (Fisher Scientific) and 60 mg of beta-carotene per 100 ml ("Twinlab"--Twin Laboratories--Ronkonkoma, N.Y.). After twenty-two hours, the mice were given a Modified HLR 341 diet having 10 percent of 10% beta-carotene beadlets, 10% safflower oil food pellets, 6% lard, 1.6 mg/kg of vitamin K, and 4000 IU/kg of vitamin A (Dyets, Inc.). Each mouse ingested about 20 mg total beta-carotene from the water and food by the twenty-fourth hour.
At the twenty-fourth and thirtieth hours, all of the mice received an IP injection of 500 mg/kg of acetaminophen dissolved in 20% Tween 80 (Sigma Chemical Co.) in saline. At the forty-eighth hour, all of the mice were weighed, and the drinking bottles were filled with pure water.

[18] = forty-eight hours on beta-carotene diet after starvation, before acetaminophen
[19] = acetaminophen in water, 600 mg/kg IP after hour 48 and 300 mg/kg IP at hour 60

## vitamin A
[1]
  adverse side effects and toxicity due to aspirin: reduced adverse side effects and toxicity due to aspirin
[2]
  duodenal ulcers and stress ulcers: could prevent duodenal ulcers and stress ulcers

## CC(=O)Nc1ccc(O)cc1 [acetaminophen]
[3]; normal dosages, normal patient
  half-life: about 21/2
[3]; severe hepatocellular injury
  half-life: over 4 hours
[4]
  solubility in water: soluble in water
[5]
  feeding following IP injection of a lethal dose: cease to feed
[6]; acute acetaminophen toxicity
  time of hepatic failure after ingestion: three to five
[6]; acute ingestion
  ingestion at which mortality is significantly higher: exceeds 25 grams
[6]; adult
  toxic dosage: greater than 10 grams
[6]; child
  toxic dosage: ≥ 140 milligrams per kilogram
[6]; long term dosages, as low as
  dosage that has resulted in chronic liver disease: three

## CC1=C(/C=C/C(C)=C/C=C/C(C)=C/C=C/C=C(C)/C=C/C=C(C)/C=C/C2=C(C)CCCC2(C)C)C(C)(C)CCC1 [beta-carotene]
[1]
  adverse side effects and toxicity due to aspirin: reduced adverse side effects and toxicity due to aspirin
[7]
  toxic side effects of antibiotics: prevent the toxic side effects of antibiotics
[8]
  safe upper limit (believed): at least 1,000 mg/day
[9]
  deposition in liver cells: deposited in, and remains sequestered in, only the Kupffer cells of the liver
[10]; about 0.1 gram beta-carotene, acetaminophen 800 mg/kg IP then 600 mg/kg
  mice alive by seventy hours after the first injection: 92%
[10]; [18]
  regain of original weight: 86%
[10]; twelve mice, about 0.1 gram beta-carotene, 800 mg/kg acetaminophen IP
  mice that had died by thirty-six hours after the injection: one mouse had died
[11]; 0.1% aqueous acetaminophen
  body weight after twenty-four hours: regained or increased their original weight
[11]; 0.5% aqueous acetaminophen
  body weight after the forty-eighth hour: maintenance of the mice's original weight
[11]; [19]
  animals alive at the seventy-second hour: all of the animals were alive
  mice alive at the one hundred fiftieth hour: 90%
[11]; acetaminophen in water, 600 and 300 mg/kg IP
  body weight, of original weights, at the one hundred fiftieth hour: 93%
[12]
  cytochrome P450: reduced cytochrome P450
[13]
  oxidative cleavage at the central double bond: readily undergoes oxidative cleavage at the central double bond
[14]
  aflatoxin-induced liver toxicity: reduction of aflatoxin-induced liver toxicity
[15]; beta-carotene diet for forty-eight hours (about 0.1 gram per mouse), 800 mg/kg acetaminophen IP
  mice alive seventy-two hours after injection: 63%
[15]; [18]
  restoration of original weight: 98%
[16]; administration before challenge with toxic amounts of acetaminophen
  survival rate compared with Comparative Examples 1A*-4A*: increases the survival rate significantly
[16]; nine mice, pre-fed five months (about 7.5 grams beta-carotene)
  mice alive seventy-two hours after injection: all mice were alive
[16]; nineteen mice, pre-fed seven days (about 0.35 grams beta-carotene)
  mice alive seventy-two hours after injection: five of the mice were alive
[16]; pre-feeding 5 Months
  Survival 72 Hours After Ingestion (%): 100%
  Survival 72 Hours After Ingestion, Survivors/Sample: 9/9
[16]; pre-feeding 5 Weeks
  Survival 72 Hours After Ingestion (%): 65%
  Survival 72 Hours After Ingestion, Survivors/Sample: 13/20
[16]; pre-feeding 7 Days
  Survival 72 Hours After Ingestion (%): 26%
  Survival 72 Hours After Ingestion, Survivors/Sample: 5/19
[16]; pre-feeding 23 Days
  Survival 72 Hours After Ingestion (%): 100%
  Survival 72 Hours After Ingestion, Survivors/Sample: 20/20
[16]; twenty mice, pre-fed five weeks (about 1.75 grams beta-carotene)
  mice alive seventy-two hours after injection: thirteen of the mice were alive
[16]; twenty mice, pre-fed twenty-three days (about 1.15 grams beta-carotene)
  mice alive seventy-two hours after injection: twenty of the mice were alive
[17]
  mice alive by the seventy-second hour: 75%
